# Article PMC2765508 (Biochemistry, 2009)
# Entries after “also recorded” stand apart in the source; their conditions may differ.
# Tested on: MP1
# Assay: 2 μg of MP1 in 25 mM Tris buffer, pH 7.5
# Details: human
row,Substance,cleaved bond
1,YGGFMTSEKSETPLVTLFKNAIIKNAYKKGE,"Phe-M, minor; also recorded: Thr16-Leu17, minor; also recorded: Pro13-Leu14, minor; also recorded: Leu14-Val15, minor"

# Tested on: nardilysin
# Assay: not given
# Details: cited from earlier work
row,Substance,cleavage by nardilysin
1,Angiotensin I,not cleaved
2,RPPG▼FSPFR [Bradykinin],not cleaved

# Tested on: insulysin
# Assay: not given
# Details: cited from earlier work
row,Substance,cleavage by insulysin
1,Angiotensin I,not cleaved
2,RPPG▼FSPFR [Bradykinin],not cleaved

# Tested on: MP1 (metallopeptidase 1, mammalian pitrilysin)
# Assay: purified recombinant human MP1
# Details: not given
row,Substance,cleaved bond
1,CGNLSTCMLGTYTQDFNKFHTFPQTAIGVGAP,"C-M, first_seen; also recorded: G-T, first_seen; also recorded: K-F, minor"
2,RPKPQQFFGLM,"F-F, minor; also recorded: G-L, first_seen"
3,SLRRSSCFGGRMDRIGAQSGLGCNSFRY,"D-R, first_seen; also recorded: S-F, first_seen"
4,YADAIFTNSYRKVLGQLSARKLQDIMQQGESNQERGA,"Y-A, minor; also recorded: G-Q, first_seen; also recorded: S-A, first_seen"
5,YGGFL,"Y-G, first_seen"
6,YGGFLRRIRPKLKWDNQ,"R-I, minor; also recorded: P-K, first_seen; also recorded: Y-G, minor"
7,YGGFLRRQFKVVT,"Y-G, minor; also recorded: F-K, minor; also recorded: K-V, first_seen"

# Target: T1, human MP1 (Homo sapiens, UniProt Q5JRX3)
# T1 sequence (Q5JRX3 29-1037): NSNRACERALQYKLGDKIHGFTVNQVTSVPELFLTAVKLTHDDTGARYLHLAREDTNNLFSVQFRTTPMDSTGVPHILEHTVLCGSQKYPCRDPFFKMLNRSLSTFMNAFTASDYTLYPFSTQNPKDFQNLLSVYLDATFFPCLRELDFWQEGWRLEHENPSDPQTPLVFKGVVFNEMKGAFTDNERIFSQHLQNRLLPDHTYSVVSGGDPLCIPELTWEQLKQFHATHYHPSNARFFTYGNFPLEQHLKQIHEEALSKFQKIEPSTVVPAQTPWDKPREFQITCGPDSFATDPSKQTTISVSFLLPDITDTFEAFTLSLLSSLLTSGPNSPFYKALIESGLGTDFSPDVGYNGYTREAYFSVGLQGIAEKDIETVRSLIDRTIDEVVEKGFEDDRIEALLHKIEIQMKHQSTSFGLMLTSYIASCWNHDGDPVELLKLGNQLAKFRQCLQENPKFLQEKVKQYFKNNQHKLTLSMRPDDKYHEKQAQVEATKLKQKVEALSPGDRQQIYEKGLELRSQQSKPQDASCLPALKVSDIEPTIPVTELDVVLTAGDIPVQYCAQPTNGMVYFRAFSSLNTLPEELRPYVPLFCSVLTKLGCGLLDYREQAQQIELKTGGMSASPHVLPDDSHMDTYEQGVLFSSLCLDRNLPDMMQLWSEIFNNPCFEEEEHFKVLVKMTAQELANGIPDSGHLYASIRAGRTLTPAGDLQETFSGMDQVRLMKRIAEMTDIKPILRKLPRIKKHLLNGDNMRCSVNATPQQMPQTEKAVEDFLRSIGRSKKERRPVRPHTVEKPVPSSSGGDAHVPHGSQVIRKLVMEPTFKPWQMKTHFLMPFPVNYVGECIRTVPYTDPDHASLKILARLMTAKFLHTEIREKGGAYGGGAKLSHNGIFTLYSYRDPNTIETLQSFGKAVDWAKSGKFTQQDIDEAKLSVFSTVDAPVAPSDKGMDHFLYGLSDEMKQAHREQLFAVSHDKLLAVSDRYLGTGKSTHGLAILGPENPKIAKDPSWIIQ
# Assay: not given
# Assay type: biochemical
# Details: 27 amino acid citrate synthase presequence peptide as MP1 substrate
row,Substance,kcat [s⁻¹]
1,MALLTAAARLFGAKNASCLVLAARHAS-NH2 [citrate synthase presequence peptide],0.0183

# Same assay, conditions: from kcat (HPLC) and Km (alternate substrate inhibition)
row,Substance,kcat/Km [M × min^−1 × 10^5]
1,Angiotensin I,44.6 ± 4.3
2,CGNLSTC▼MLG▼TYTQDFNK↓FHTFPQTAIGVGAP [Calcitonin],15.4 ± 0.6
3,DAEFRHDSGYEVHHQKLVFF▼AEDVGSNKGAIIGL↓MVGGVV [β-Amyloid (1–40)],19.5 ± 1.1
4,Insulin,0.03 ± 0.00
5,RPKPQQF↓FG▼LM [Substance P],23.6 ± 2.5
6,RPPG▼FSPFR [Bradykinin],21.8 ± 1.2
7,SLRRSSCFGGRMD▼RIGAQSGLGCNS▼FRY (disulfide) [Atrial natriuretic peptide],199.2 ± 18.6
8,Somatostatin,41.7 ± 3.8
9,YGGFL [Leu-enkephalin],18.7 ± 2.1
10,YGG↓F↓MTSEKSETPLV↓T↓L▼FKNA▼IIKNAYKKGE [β-endorphin],62.6 ± 5.1
11,Y↓ADAIFTNSYRKVLG▼QLS▼ARKL↓QDIMQQGESNQERGA [Growth Hormone Releasing factor],29.4 ± 3.4
12,"Y↓GGFLRRQFK↓VVT↓RSQED▼PNAYYEEL▼FDV [Leumorphin (porcine), Leumorphin]",63.5 ± 4.5
13,Y↓GGFLRRQF↓K▼VVT [Dynorphin B],46.3 ± 6.8
14,Y↓GGFLRR↓IRP▼KLKWDNQ [Dynorphin A],62.6 ± 6.8

# Target: T1, human MP1
# Assay: not given
# Assay type: biochemical
# Details: 27 amino acid citrate synthase presequence peptide as MP1 substrate
# Remark: another data set of the same source
row,Substance,Km [µM]
1,MALLTAAARLFGAKNASCLVLAARHAS-NH2 [citrate synthase presequence peptide],0.17

# Tested on: protease III
# Assay: not given
# Details: cited from earlier work
row,Substance,cleavage by protease III
1,Angiotensin I,not cleaved
2,RPPG▼FSPFR [Bradykinin],not cleaved
